Experimental data from patent US20140193831A1, “SEED TRAIT PREDICTION BY ACTIVITY-BASED PROTEIN PROFILING” (GAUTIER SEMENCES, priority 2011, published 2014).

Key:
seed proteins = assay: ABPP labelling of a tomato seed extract with four fluorescent probes in parallel (FIG. 2); format: biochemical; settings: plant seed extract, 2 μM probe, buffers NaOAc pH 5.5 or Tris pH 7.6 with 1 mM DTT
diagnostic marker 4 = assay: Single seed-ABPP of unprimed and primed tomato seeds with MV151 (FIG. 17); format: biochemical; settings: 4 hours, Tris pH 7.5
Excerpt: A: Structure of MV151 (see also FIG. 7). This probe consists of a vinylsulfonate (VS) reactive groups, a leucine tripeptide binding group as linker, and a fluorescence bodipy reporter tag (left grey circle) (MV151: Verdoes et al., (2006) Chem. Biol. 13: 1217-1226). B: MV151 was used for detection of a diagnostic marker for primed seeds in tomato. […] Proteins were separated on 14% protein gels and analyzed by scanning for fluorescent proteins (ex 532 nm/em 575 nm) and stained with coomassie. […] This is an Example of successful identification of primed seeds by ABPP of the present invention without need for germination of the seeds.

COc1ccc(C2=[N+]3C(=Cc4c(C)c(CCC(=O)NCCCCCC(=O)NCCCCCC(=O)NCCCCCC(=O)N[C@@H](CC(C)C)C(=O)N[C@@H](CC(C)C)C(=O)N[C@H](/C=C/S(C)(=O)=O)CC(C)C)c(C)n4[B-]3(F)F)C=C2)cc1 [MV151] was tested, and the “labelling of seed proteins on fluorescence gel” value (seed proteins) was “Robust labelling”, the “seeds in which diagnostic marker 4 is detected” value (diagnostic marker 4; primed A1 seeds, 14 of 14, 2 μM probe) was 100% and the “seeds in which diagnostic marker 4 is detected” value (diagnostic marker 4; unprimed A1 seeds, 4 of 14, 2 μM probe) was 36%.
